One block for each molecule: values may come before it.
Experiments:
Assay type in all cases: biochemical
[1] = target: T1, purified soluble type ENPP5 protein (Homo sapiens, UniProt Q9UJA9); assay: Inhibition of light-emitting substrate degradation by soluble type ENPP5 protein
T1 construct: signal peptide; base No. 1 to 66, mature protein; base No. 67 to 1287; made in house; host or cells: HEK293T (secreted into culture supernatant, His-Trap purified)
T1 sequence (Q9UJA9 23-429): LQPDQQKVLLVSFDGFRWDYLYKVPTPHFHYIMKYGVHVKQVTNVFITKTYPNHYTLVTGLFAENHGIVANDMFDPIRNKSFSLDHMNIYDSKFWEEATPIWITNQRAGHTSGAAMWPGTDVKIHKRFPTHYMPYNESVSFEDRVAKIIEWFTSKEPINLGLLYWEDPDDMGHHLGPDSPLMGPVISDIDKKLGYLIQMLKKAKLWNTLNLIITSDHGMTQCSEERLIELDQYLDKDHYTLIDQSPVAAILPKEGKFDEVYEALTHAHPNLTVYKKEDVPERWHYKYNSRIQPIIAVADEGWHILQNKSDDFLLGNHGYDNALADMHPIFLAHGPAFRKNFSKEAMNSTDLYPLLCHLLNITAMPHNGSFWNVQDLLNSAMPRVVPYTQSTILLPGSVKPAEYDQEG
Method: 0.2 μg of the purified soluble type ENPP5 protein was mixed in 90 μL of assay buffer (20 mM HEPES, 140 mM NaCl, 5 mM KCl, 10 mM Glucose, pH 7.5), and 10 μL of each of 10 mM pNP-PP and a solution of a test compound was added thereto, and then was kept at 37° C. for 2 hours. Then, absorption of light of 405 nm was measured and thereby, the amount of p-nitorphenol was quantitatively determined and thereby the inhibitory activity of […] pNP-PP degradation of each of the test compound was examined. By using Neurotransmitter Library Plate 10 (Purinergic & adenosines) ver. 2 (manufactured by BIOMOL Inc.) as test compounds, and the inhibitory activity of pNP-TMP degradation of each of 1 mM compounds was measured and, 70% or more of the inhibitory activity was detected in 2-Methyl-ATP, and 80% or more of the inhibitory activity was detected in ADP, UDP, and GDP.

[2] = target: T2, purified soluble type ENPP4 protein (Homo sapiens, UniProt Q9Y6X5); assay: Identification of nucleic acids to be ENPP4 substrate (HPLC); details: for degradation by ENPP4 (NMP detected as reacted product) / degradation amount / activity of degrading by ENPP4: 200 μM nucleic acid, HPLC, FIG. 15; for degradation by ENPP4 (NMP detected as reacted product): pH 8.5, 37° C., 2, 5 or 8 hours
T2 construct: signal peptide; base No. 1 to 45, mature protein; base No. 46 to 1212; made in house; host or cells: HEK293T (secreted into culture supernatant, His-Trap purified)
T2 sequence (Q9Y6X5 16-404): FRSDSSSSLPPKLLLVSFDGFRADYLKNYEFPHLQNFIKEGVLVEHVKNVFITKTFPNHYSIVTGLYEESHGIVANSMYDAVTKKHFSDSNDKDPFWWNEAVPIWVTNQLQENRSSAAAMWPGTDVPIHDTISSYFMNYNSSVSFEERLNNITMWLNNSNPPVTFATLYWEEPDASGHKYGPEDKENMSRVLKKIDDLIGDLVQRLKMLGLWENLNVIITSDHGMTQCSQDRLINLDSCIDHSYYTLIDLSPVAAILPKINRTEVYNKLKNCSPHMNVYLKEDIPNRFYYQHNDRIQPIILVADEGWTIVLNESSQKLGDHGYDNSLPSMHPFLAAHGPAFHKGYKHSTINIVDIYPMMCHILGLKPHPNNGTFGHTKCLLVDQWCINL
Method: (§1) 0.5 μg of the purified soluble type ENPP4 protein was mixed in 500 μL of assay buffer (20 mM HEPES, 140 mM NaCl, 5 mM KCl, 10 mM Glucose, pH 8.5), and then, each kind of nucleic acids were added thereto so that its final concentration became 200 μM. The mixture was kept at 37° C. for 2, 5, or 8 hours. Then, by using HPLC (Unison-UKC18 reversed-phase column 30×2 mm, manufactured by Imtakt Co., Ltd.) (mobile phase: 50 mM sodium phosphate buffer (pH 6.4), 5 mM tetrabutylammonium hydrogen sulfate, 1 mM EDTA, 2-30% acetonitrile), the nucleic acids were separated from the reacted solution, and the substrates and the reacted products were quantitatively determined.

[3] = target: T1, purified soluble type ENPP5 protein; assay: Identification of nucleic acids to be ENPP5 substrate (HPLC); details: 200 μM nucleic acid, pH 7.5, 37° C., 2, 5 or 8 hours, FIG. 15
Method: as §1, with “ENPP5” for “ENPP4”, “7.5),” for “8.5),”, “performed” for “kept”

[4] = target: T2, purified soluble type ENPP4 protein; assay: Inhibition of pNP-TMP or pNP-PP degradation by soluble type ENPP4 protein
Method: 0.2 μg of the purified soluble type ENPP4 protein was mixed in 90 μL of assay buffer (20 mM HEPES, 140 mM NaCl, 5 mM KCl, 10 mM Glucose, pH 8.5), and 10 μL of each of 10 mM pNP-TMP or pNP-PP and a solution of a test compound was added thereto, and then was kept at 37° C. for 2 hours. Then, absorption of light of 405 nm was measured and thereby, the amount of p-nitorphenol was quantitatively determined and thereby the inhibitory activity of pNP-TMP or pNP-PP degradation of each test compound was examined. By using pNP-TMP and Neurotransmitter Library Plate 10 (Purinergic & adenosines) ver. […] Moreover, 60% or more of the inhibitory activity was detected in CDP-Choline, and 40% or more of the inhibitory activity was detected in P1P3-DiAdenosine-triphosphate (AP(3)A), P1P6-DiAdenosine-hexaphosphate (AP(6)A).

[5] = target: T3, purified soluble type ENPP6 protein (Homo sapiens, UniProt Q6UWR7); assay: Inhibition of light-emitting substrate degradation by soluble type ENPP6 protein
T3 construct: signal peptide; base No. 1 to 66, mature protein; base No. 67 to 1269; made in house; host or cells: HEK293T (secreted into culture supernatant, His-Trap purified)
T3 sequence (Q6UWR7 23-423): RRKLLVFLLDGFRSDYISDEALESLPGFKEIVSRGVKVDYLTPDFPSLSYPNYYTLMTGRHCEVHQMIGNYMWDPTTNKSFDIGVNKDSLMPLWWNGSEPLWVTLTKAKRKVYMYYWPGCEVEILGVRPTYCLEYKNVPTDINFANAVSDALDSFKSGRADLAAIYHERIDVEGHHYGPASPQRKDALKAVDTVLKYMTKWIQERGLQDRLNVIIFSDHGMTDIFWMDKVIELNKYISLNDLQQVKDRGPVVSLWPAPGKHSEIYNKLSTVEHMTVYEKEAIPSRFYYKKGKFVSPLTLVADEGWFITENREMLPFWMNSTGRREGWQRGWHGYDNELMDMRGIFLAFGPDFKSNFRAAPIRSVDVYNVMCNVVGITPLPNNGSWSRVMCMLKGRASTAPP
Method: 0.2 μg of the purified soluble type ENPP6 protein was mixed in 90 μL of assay buffer (20 mM HEPES, 140 mM NaCl, 5 mM KCl, 1 mM CaCl2, 1 mM MgCl2, 10 mM Glucose, pH 9.6), and 10 μL of each of 10 mM pNP-PP and a solution of a test compound was added thereto, and was kept at 37° C. for 2 hours. Then, absorption of light of 405 nm was measured and thereby, the amount of p-nitorphenol was quantitatively determined and thereby the inhibitory activity of […] degradation of each of the test compounds was examined. By using Neurotransmitter Library Plate 10 (Purinergic & adenosines) ver. 2, Bioactive Lipid Library ver. 3 (manufactured by BIOMOL Inc.), and various lysophospholipids as test compounds, the inhibitory activity of pNP-PP degradation was measured and, 80% or more of the inhibitory activity was detected in Glycerophosphorilcholine, and 70% or more of the inhibitory activity in Lysophosphatidylcholine, 1-Methyladenosine, 3-Deazaadenosine, ATP, and ADP(1 mM), and 60% or more of the inhibitory activity in N6-Methyladenosine, N6-Methyl-2′-deoxy-adenosine, S-Adenosyl-L-Homocysteine, and 2-MethylthioATP.

inhibitory activity of pNP-TMP degradation ([1]; 1 mM compound, pH 7.5, 37° C., 2 hours): ≥ 70%
Molecule: Cc1nc(N)c2ncn(C3OC(COP(=O)(O)OP(=O)(O)OP(=O)(O)O)C(O)C3O)c2n1 (centres unmarked) [2-Methyl-ATP]

degradation by ENPP4 (NMP detected as reacted product) [2]: degraded by ENPP4
Molecule: Nc1ncnc2c1ncn2[C@@H]1O[C@H](COP(=O)(O)OP(=O)(O)OP(=O)(O)OC[C@H]2O[C@@H](n3cnc4c(N)ncnc43)[C@H](O)[C@@H]2O)[C@@H](O)[C@H]1O [AP(3)A, P1P3-DiAdenosine-triphosphate]

degradation by ENPP4 (NMP detected as reacted product) [2]: degraded by ENPP4
Molecule: Nc1ncnc2c1ncn2[C@@H]1O[C@H](COP(=O)(O)OP(=O)(O)OP(=O)(O)OP(=O)(O)OC[C@H]2O[C@@H](n3cnc4c(N)ncnc43)[C@H](O)[C@@H]2O)[C@@H](O)[C@H]1O [AP(4)A, P1P4-DiAdenosine-tetraphosphate]
degradation amount / activity of degrading by ENPP4 [2]: lower than the activity of degrading Ap(3)A

degradation by ENPP4 (NMP detected as reacted product) [2]: degraded by ENPP4
Molecule: Nc1ncnc2c1ncn2[C@@H]1O[C@H](COP(=O)(O)OP(=O)(O)OP(=O)(O)OP(=O)(O)OP(=O)(O)OP(=O)(O)OC[C@H]2O[C@@H](n3cnc4c(N)ncnc43)[C@H](O)[C@@H]2O)[C@@H](O)[C@H]1O [AP(6)A, P1P6-DiAdenosine-hexaphosphate]

degradation amount / activity of degrading by ENPP4 [2]: small
degradation by ENPP4 (NMP detected as reacted product) [2]: degraded by ENPP4
inhibitory activity against ENPP4 (concluded from small degradation and high inhibition) ([2]; conclusion from Examples 16 and 19): has an inhibitory activity against ENPP4
Molecule: Nc1ncnc2c1ncn2[C@@H]1O[C@H](COP(=O)(O)OP(=O)(O)OP(=O)(O)O)[C@@H](O)[C@H]1O [ATP]
concentration dependence of inhibitory activity against ENPP4 ([4]; FIG. 12, pNP-TMP degradation): inhibitory activity depending on concentration of ATP was detected
concentration dependence of inhibitory activity of pNP-PC degradation by ENPP5 ([1]; FIG. 13): inhibitory activity of pNP-PC degradation depending on concentration of ATP was detected

Continued, molecule first:

Molecule: Nc1ncnc2c1ncn2[C@@H]1O[C@H](COP(=O)(O)OP(=O)(O)O)[C@@H](O)[C@H]1O [ADP]
degradation by ENPP4 (NMP detected as reacted product) [2]: degraded by ENPP4
degradation by ENPP5 (NMP detected as reacted product) [3]: degraded by ENPP5

Molecule: C[N+](C)(C)CCOP(=O)(O)OP(=O)([O-])OC[C@H]1O[C@@H](n2ccc(N)nc2=O)[C@H](O)[C@@H]1O [CDP-Choline]
inhibition at 1000 µM ([4]; 1 mM compound, pH 8.5, 37° C., 2 hours, FIG. 11 (pNP-TMP), read-out: inhibitory activity of pNP-TMP or pNP-PP degradation): ≥ 60%
degradation by ENPP4 (NMP detected as reacted product) [2]: degraded by ENPP4
degradation by ENPP5 (NMP detected as reacted product) [3]: degraded by ENPP5

Molecule: Nc1ccn([C@@H]2O[C@H](COP(=O)(O)OP(=O)(O)O)[C@@H](O)[C@H]2O)c(=O)n1 [CDP]
degradation by ENPP4 (NMP detected as reacted product) [2]: degraded by ENPP4

Molecule: Nc1ccn([C@@H]2O[C@H](COP(=O)(O)OP(=O)(O)OP(=O)(O)O)[C@@H](O)[C@H]2O)c(=O)n1 [CTP]
degradation by ENPP4 (NMP detected as reacted product) [2]: degraded by ENPP4

Molecule: C[N+](C)(C)CCOP(=O)([O-])OC[C@H](O)CO [Glycerophosphorilcholine]
inhibitory activity of pNP-PP degradation ([5]; pH 9.6, 37° C., 2 hours, 1 mM printed for ADP): ≥ 80%

Molecule: O=c1ccn([C@@H]2O[C@H](COP(=O)(O)OP(=O)(O)O)[C@@H](O)[C@H]2O)c(=O)[nH]1 [UDP]
degradation by ENPP4 (NMP detected as reacted product) [2]: degraded by ENPP4
degradation by ENPP5 (NMP detected as reacted product) [3]: degraded by ENPP5

Molecule: O=c1ccn([C@@H]2O[C@H](COP(=O)(O)OP(=O)(O)OP(=O)(O)O)[C@@H](O)[C@H]2O)c(=O)[nH]1 [UTP]
degradation by ENPP4 (NMP detected as reacted product) [2]: degraded by ENPP4

Molecule: Lysophosphatidylcholine
concentration dependence of inhibitory activity of pNP-TMP degradation by ENPP6 ([5]; FIG. 14): inhibitory activity of pNP-TMP degradation depending on concentration of LPC was detected

Molecule: diadenosine 5-phosphate [Ap(5)A]
degradation by ENPP4 (NMP detected as reacted product) [2]: degraded by ENPP4

From patent publication US8110660B2, “Soluble ENPP4 protein” (Ono Pharmaceutical Co., Ltd., priority 2004, dated 2012)
